Assays:
Experiment in all cases: Cysteine liganding, probe competition
Assay type in all cases: binding
[1] = target: T1, ATG16L1 Autophagy-related protein 16-1 (Homo sapiens, UniProt Q676U5)
T1 construct: 200 μL of lysate containing 5 mg/ml proteome was treated with 2 μL of 100× compound stock; endogenous in cells
In short: (§1)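 Read-out is loss of desthiobiotin iodoacetamide labelling at cysteines, measured on streptavidin-enriched tryptic peptides. Compound preincubation ran 1 hr at 25° C in PBS lysate holding 5 mg/ml proteome before the probe was added.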

[2] = target: T2, MT-ND5 NADH-ubiquinone oxidoreductase chain 5 (Homo sapiens, UniProt P03915); details: for Liganded: MT-ND5 Res# 518, uniprot P03915
T2 construct: Cells were resuspended in cold PBS on ice and sonicated with a probe sonicator to achieve lysis; endogenous in cells
In short: as §1

[3] = target: T3, CKMT1B Creatine kinase U-type, mitochondrial (Homo sapiens, UniProt P12532); details: for Liganded: CKMT1B Res# 316, uniprot P12532
T3 construct: 200 μL of lysate containing 5 mg/ml proteome was treated with 2 μL of 100× compound stock; endogenous in cells
In short: as §1

[4] = target: T4, RNF40 E3 ubiquitin-protein ligase BRE1B (Homo sapiens, UniProt O75150)
T4 construct: Cells were resuspended in cold PBS on ice and sonicated with a probe sonicator to achieve lysis; endogenous in cells
In short: as §1

[5] = target: T5, CEP44 Centrosomal protein of 44 kDa (Homo sapiens, UniProt Q9C0F1)
T5 construct: 200 μL of lysate containing 5 mg/ml proteome was treated with 2 μL of 100× compound stock; endogenous in cells
T5 sequence (Q9C0F1 1-390): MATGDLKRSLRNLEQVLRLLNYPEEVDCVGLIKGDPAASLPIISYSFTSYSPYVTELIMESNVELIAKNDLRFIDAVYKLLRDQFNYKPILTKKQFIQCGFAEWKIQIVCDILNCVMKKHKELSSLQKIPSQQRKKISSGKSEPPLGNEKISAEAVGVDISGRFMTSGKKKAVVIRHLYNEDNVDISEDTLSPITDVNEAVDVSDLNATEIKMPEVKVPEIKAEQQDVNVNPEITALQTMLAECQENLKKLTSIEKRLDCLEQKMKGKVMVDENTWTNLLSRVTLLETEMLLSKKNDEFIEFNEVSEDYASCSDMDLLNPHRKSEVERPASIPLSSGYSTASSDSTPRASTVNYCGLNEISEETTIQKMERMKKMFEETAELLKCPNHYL
In short: as §1

[6] = target: T6, UBR2 E3 ubiquitin-protein ligase UBR2 (Homo sapiens, UniProt Q8IWV8)
T6 construct: Cells were resuspended in cold PBS on ice and sonicated with a probe sonicator to achieve lysis; endogenous in cells
In short: as §1

[7] = target: T7, DECR2 Peroxisomal 2,4-dienoyl-CoA reductase (Homo sapiens, UniProt Q9NUI1); details: for Liganded: DECR2 Res# 120, uniprot Q9NUI1
T7 construct: 200 μL of lysate containing 5 mg/ml proteome was treated with 2 μL of 100× compound stock; endogenous in cells
T7 sequence (Q9NUI1 1-292): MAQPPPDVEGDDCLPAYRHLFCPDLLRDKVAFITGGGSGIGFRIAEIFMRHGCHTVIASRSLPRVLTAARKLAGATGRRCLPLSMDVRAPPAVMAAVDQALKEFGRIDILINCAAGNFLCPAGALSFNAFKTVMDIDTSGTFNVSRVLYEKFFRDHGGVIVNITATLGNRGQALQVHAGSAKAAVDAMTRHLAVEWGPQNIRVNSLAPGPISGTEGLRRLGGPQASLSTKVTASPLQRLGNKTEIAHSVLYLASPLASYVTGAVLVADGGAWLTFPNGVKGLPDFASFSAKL
In short: as §1

T1 sequence (Q676U5 whole entry): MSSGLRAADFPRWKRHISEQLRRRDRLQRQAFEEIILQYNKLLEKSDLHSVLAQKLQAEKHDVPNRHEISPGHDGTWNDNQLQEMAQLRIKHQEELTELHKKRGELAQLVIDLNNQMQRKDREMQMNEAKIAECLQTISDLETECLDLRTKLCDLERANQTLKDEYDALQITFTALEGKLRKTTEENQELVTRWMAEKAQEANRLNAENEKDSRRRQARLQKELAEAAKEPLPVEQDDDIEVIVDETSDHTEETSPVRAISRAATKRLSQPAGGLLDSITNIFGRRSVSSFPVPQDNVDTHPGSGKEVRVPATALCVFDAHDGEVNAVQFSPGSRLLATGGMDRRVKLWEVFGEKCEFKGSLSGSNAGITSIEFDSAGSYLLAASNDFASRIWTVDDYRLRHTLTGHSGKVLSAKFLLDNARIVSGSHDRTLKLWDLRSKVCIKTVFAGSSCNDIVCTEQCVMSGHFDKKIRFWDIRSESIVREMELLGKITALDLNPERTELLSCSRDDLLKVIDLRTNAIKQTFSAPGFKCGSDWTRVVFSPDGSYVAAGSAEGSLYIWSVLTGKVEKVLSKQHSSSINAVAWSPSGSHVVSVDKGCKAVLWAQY
T2 sequence (P03915 whole entry): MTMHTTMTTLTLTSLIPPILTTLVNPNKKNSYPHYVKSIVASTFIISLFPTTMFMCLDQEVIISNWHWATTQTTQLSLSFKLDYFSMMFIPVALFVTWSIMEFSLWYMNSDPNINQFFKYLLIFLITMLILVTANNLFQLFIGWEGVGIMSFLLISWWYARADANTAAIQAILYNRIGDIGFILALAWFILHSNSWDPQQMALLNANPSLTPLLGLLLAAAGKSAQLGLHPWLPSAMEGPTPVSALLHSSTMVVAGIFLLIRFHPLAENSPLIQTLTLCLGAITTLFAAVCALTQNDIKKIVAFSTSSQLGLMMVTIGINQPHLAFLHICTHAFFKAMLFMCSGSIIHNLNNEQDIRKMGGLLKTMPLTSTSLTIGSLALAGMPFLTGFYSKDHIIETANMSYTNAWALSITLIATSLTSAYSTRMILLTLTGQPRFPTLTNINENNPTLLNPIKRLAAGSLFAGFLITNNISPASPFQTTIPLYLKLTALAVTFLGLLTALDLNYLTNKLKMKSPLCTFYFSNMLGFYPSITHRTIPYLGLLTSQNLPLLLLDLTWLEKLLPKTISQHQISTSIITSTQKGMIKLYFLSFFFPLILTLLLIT
T6 sequence (Q8IWV8 whole entry): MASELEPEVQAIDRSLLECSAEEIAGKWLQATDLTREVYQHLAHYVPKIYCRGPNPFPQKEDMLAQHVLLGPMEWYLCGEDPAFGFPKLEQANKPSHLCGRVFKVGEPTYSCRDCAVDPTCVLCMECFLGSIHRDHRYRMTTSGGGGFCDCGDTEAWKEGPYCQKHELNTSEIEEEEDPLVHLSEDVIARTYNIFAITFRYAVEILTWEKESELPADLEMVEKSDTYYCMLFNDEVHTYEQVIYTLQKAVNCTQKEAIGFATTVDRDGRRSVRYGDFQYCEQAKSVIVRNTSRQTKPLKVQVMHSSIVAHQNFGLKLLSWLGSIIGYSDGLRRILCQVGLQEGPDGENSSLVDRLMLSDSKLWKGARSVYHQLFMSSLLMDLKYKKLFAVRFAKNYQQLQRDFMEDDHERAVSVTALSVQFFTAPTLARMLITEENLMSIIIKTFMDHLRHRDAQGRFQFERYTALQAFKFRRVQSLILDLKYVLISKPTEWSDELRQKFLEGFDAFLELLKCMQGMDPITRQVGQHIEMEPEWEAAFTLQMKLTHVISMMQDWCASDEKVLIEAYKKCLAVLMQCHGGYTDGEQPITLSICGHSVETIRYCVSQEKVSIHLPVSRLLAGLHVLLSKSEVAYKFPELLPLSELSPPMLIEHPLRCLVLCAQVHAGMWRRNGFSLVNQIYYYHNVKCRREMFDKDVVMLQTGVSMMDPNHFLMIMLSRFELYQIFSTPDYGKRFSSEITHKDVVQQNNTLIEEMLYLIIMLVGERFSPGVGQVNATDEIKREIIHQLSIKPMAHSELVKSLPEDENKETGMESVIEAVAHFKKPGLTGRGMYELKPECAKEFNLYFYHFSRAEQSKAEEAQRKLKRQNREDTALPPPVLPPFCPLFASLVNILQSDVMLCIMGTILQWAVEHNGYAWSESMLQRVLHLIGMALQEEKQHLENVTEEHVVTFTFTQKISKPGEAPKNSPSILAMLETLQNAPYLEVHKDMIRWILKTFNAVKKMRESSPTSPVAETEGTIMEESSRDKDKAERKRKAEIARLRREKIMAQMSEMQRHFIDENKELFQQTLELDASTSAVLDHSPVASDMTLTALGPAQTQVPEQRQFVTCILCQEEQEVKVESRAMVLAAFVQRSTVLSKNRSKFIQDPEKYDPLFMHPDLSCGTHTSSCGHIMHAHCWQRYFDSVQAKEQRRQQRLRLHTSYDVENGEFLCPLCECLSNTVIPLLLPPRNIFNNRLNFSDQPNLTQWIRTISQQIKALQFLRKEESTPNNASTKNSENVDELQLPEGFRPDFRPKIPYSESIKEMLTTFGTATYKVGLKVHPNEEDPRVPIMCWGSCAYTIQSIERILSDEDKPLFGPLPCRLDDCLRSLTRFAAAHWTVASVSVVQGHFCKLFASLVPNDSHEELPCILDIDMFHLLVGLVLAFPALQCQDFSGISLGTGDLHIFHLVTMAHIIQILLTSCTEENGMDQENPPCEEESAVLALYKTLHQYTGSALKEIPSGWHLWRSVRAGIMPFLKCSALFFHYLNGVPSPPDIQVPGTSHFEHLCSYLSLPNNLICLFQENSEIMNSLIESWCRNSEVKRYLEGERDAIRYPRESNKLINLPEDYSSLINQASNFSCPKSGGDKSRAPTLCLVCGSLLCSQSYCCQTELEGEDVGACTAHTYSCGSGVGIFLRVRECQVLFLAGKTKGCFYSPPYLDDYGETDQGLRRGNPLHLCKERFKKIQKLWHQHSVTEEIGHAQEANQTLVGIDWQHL
T4 sequence (O75150 whole entry): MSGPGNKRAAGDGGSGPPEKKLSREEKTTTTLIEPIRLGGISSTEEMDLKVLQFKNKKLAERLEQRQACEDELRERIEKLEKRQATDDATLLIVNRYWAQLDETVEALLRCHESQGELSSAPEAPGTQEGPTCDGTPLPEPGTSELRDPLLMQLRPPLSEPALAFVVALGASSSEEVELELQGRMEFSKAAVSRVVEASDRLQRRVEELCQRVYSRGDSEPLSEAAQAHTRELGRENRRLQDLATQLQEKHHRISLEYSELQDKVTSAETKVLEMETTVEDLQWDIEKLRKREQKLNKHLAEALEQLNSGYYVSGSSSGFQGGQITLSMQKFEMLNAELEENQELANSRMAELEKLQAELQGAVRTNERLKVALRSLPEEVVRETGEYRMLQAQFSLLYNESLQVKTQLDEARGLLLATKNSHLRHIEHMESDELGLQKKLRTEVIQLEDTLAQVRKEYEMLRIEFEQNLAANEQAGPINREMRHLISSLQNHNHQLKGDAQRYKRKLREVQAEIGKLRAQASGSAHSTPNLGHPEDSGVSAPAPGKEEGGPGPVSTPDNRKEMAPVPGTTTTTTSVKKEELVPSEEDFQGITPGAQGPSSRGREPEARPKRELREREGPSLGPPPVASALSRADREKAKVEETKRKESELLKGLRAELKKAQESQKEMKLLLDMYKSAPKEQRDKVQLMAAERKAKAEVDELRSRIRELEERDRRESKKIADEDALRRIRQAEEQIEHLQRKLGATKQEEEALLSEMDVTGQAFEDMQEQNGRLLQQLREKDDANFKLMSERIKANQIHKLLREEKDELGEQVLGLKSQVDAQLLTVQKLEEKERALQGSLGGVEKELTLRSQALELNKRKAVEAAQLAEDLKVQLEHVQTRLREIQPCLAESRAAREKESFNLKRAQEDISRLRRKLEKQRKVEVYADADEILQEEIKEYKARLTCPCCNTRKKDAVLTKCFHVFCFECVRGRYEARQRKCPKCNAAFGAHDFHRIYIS

For `COc1ccc2c(c1)CCCN2C(=O)CCl` [KB02], the Liganded ([1]; ATG16L1 Res# 145, uniprot Q676U5) was “YES”, the Liganded [2] was “YES” and the Liganded [3] was “YES”. For the same molecule, the percent_inhibition ([4]; 500 uM, UniProt O75150) was 24%, the Liganded ([4]; RNF40 Res# 890, uniprot O75150) was “YES” and the Liganded ([5]; CEP44 Res# 28, uniprot Q9C0F1) was “YES”. For the same molecule, the Liganded ([6]; UBR2 Res# 1717, uniprot Q8IWV8) was “YES” and the Liganded [7] was “YES”.

For `O=C(CCl)Nc1cc(C(F)(F)F)cc(C(F)(F)F)c1` [KBO3], the “100 Max” value ([1]; uniprot Q676U5) was −47.09, the 100 ave ([1]; uniprot Q676U5) was −47.09 and the “500 Max” value ([1]; uniprot Q676U5) was 18.73. For the same molecule, the 500 ave ([1]; uniprot Q676U5) was 18.73, the Liganded [2] was “YES” and the 100 ave ([2]; uniprot P03915) was 83.61. For the same molecule, the “100 Max” value ([2]; uniprot P03915, in % (unit assumed)) was 83.61, the Liganded [3] was “YES” and the “100 Max” value ([3]; uniprot P12532) was 42.35. For the same molecule, the 100 ave ([3]; uniprot P12532) was 29.59, the 500 ave ([3]; uniprot P12532) was 81.71 and the “500 Max” value ([3]; uniprot P12532, in % (unit assumed)) was 86.19. For the same molecule, the 100 ave ([4]; uniprot O75150) was −9.9, the “500 Max” value ([4]; uniprot O75150) was 29.2 and the 500 ave ([4]; uniprot O75150) was 24.5. The “100 Max” value ([4]; uniprot O75150, in % (unit assumed)) was −5.2, the 100 ave ([5]; uniprot Q9C0F1) was 14.85 and the 500 ave ([5]; uniprot Q9C0F1) was 69.9. The “100 Max” value ([5]; uniprot Q9C0F1, in % (unit assumed)) was 14.85, the 500 Max ([5]; uniprot Q9C0F1, unit assumed) was 69.9% and the “100 Max” value ([6]; uniprot Q8IWV8) was 18.5. The 100 ave ([6]; uniprot Q8IWV8) was 8.3, the 500 ave ([6]; uniprot Q8IWV8) was 60.0 and the 500 Max ([6]; uniprot Q8IWV8, unit assumed) was 65.9%. For the same molecule, the Liganded [7] was “YES”, the “100 Max” value ([7]; uniprot Q9NUI1) was 66.9 and the 100 ave ([7]; uniprot Q9NUI1) was 66.9. The “500 Max” value ([7]; uniprot Q9NUI1) was 85 and the 500 ave ([7]; uniprot Q9NUI1) was 85.

Source: patent US20200239530A1, “COMPOUNDS AND METHODS OF MODULATING PROTEIN DEGRADATION” (Vividion Therapeutics, Inc., priority 2017, published 2020)
